Results as given in ChEMBL document CHEMBL1201862, “PubChem BioAssay data set” (2004).
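Method: 48-hour compound exposure of cells in 96-well plates, five concentrations, linear interpolation of endpoints. The concentration for 50% growth inhibition is given as GI50.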 Active and inactive are the calls of the source. Rule as the data show it: active = GI50 up to about 1.1 µM and inactive = higher.

How the values were obtained:
Assay in all cases: inhibition of tumour cell growth, NCI panel, 48 h
M19-MEL = system: M19-MEL
RXF 631 = system: RXF 631
SNB-78 = system: SNB-78
LXFL 529 = system: LXFL 529
DLD-1 = system: DLD-1
DMS-273 = system: DMS-273
XF498 = system: XF498
HOP-18 = system: HOP-18
DMS-114 = system: DMS-114

Structure (SMILES)	GI50 (M19-MEL)	GI50 (RXF 631)	GI50 (SNB-78)	GI50 (LXFL 529)	GI50 (DLD-1)	GI50 (DMS-273)	GI50 (XF498)	GI50 (HOP-18)	GI50 (DMS-114)
CCOC(=O)C1=C(Nc2ccccc2)SCC1=O	> 100 µM (inactive)	> 100 µM (inactive)	> 100 µM (inactive)	> 100 µM (inactive)	> 100 µM (inactive)	> 100 µM (inactive)			
CC(C)(C)C(=O)ON1N=NC2C3CC(OCc4ccccc4)(OCc4ccccc4)C(O3)C21 (stereo not drawn)	15.8 µM (inactive)	24.7 µM (inactive)	26 µM (inactive)	11.1 µM (inactive)	15.6 µM (inactive)	22.3 µM (inactive)	18.9 µM (inactive)	24.2 µM (inactive)	
O=Cc1ccccc1OCCOc1cc(OCCOc2ccccc2C=O)c(OCCOc2ccccc2C=O)cc1OCCOc1ccccc1C=O	> 100 µM (inactive)		45.1 µM (inactive)	33.7 µM (inactive)	40.7 µM (inactive)	52.2 µM (inactive)	> 39.1 µM (inactive)	> 49.4 µM (inactive)	47.3 µM (inactive)
N#CC(C(=O)CCC(=O)Nc1cccc(C(F)(F)F)c1)c1ccccc1 (stereo not drawn)	> 100 µM (inactive)		> 100 µM (inactive)	> 100 µM (inactive)	> 100 µM (inactive)	> 100 µM (inactive)	> 100 µM (inactive)		> 100 µM (inactive)
O=C(CCCCCCCCCCc1ccccc1)C1=C(O)CC(O)CC1=O (stereo not drawn)	53.3 µM (inactive)	56.8 µM (inactive)	> 100 µM (inactive)	53.3 µM (inactive)	80.4 µM (inactive)	48 µM (inactive)	> 100 µM (inactive)	> 100 µM (inactive)	35.5 µM (inactive)
Cc1nc2c(c(=O)[nH]1)S/C(=C(/C#N)c1nc3ccccc3[nH]1)N2c1ccccc1	> 100 µM (inactive)		0.607 µM (active)	> 100 µM (inactive)	> 100 µM (inactive)	> 100 µM (inactive)	> 100 µM (inactive)		> 100 µM (inactive)
CCN(CC)C(=O)Cc1[nH][nH]c(=O)c1C(=O)N(CC)CC	> 100 µM (inactive)		> 100 µM (inactive)	> 100 µM (inactive)	> 100 µM (inactive)	> 100 µM (inactive)	> 100 µM (inactive)	> 100 µM (inactive)	> 100 µM (inactive)
CC(=O)CC(=O)/C=C/c1cccs1	83.9 µM (inactive)			85.3 µM (inactive)	44 µM (inactive)				59.4 µM (inactive)
CN(C)CCNC(=O)c1cccc2nc3c4ccccc4c4ccccc4c3nc12	1.88 µM (inactive)	2.33 µM (inactive)	14.8 µM (inactive)	2.19 µM (inactive)	1.56 µM (inactive)	2.81 µM (inactive)	2.47 µM (inactive)	8.71 µM (inactive)	
CN(C)CCNC(=O)c1cccc2nc3ccc4cccnc4c3nc12	0.43 µM (active)	0.132 µM (active)	0.482 µM (active)		0.24 µM (active)	0.118 µM (active)		1.78 µM (inactive)	0.533 µM (active)
CSc1nc2c(ncn2C2OCC(O)C(O)C2O)c(=O)[nH]1 (stereo not drawn)	> 100 µM (inactive)		> 100 µM (inactive)		> 100 µM (inactive)	> 100 µM (inactive)	> 100 µM (inactive)	> 100 µM (inactive)	> 100 µM (inactive)
CN/N=C(\C(=O)Nc1ccc(C)c(C)c1)C(C(=O)OC)c1nc2ccc([N+](=O)[O-])cc2nc1O (stereo not drawn)	> 100 µM (inactive)		> 100 µM (inactive)	> 100 µM (inactive)	> 100 µM (inactive)	> 100 µM (inactive)	> 100 µM (inactive)		42.2 µM (inactive)
Cc1ccc(NP(=O)(Oc2ccccc2)N(CCCl)CCCl)cc1 (stereo not drawn)	28.7 µM (inactive)	10 µM (inactive)	> 100 µM (inactive)	99.3 µM (inactive)	23.9 µM (inactive)	> 100 µM (inactive)		> 100 µM (inactive)	34.4 µM (inactive)
O=c1[nH]c(=O)n(C2OC3COC2C3O)cc1F (stereo not drawn)		> 100 µM (inactive)	> 100 µM (inactive)	> 100 µM (inactive)	> 100 µM (inactive)	> 100 µM (inactive)	> 100 µM (inactive)	> 100 µM (inactive)	
COC(=O)CC1N/C(=N\C#N)N(CCc2c[nH]c3ccccc23)C1=O (stereo not drawn)	> 100 µM (inactive)		> 100 µM (inactive)	> 100 µM (inactive)	> 100 µM (inactive)	> 100 µM (inactive)	> 100 µM (inactive)		> 100 µM (inactive)
